US11098038B2, “Imidazole-based anticancer agents and derivatives thereof, and methods of making and using same” (The University of Toledo, priority 2017, dated 2021)

Columns and labels:
NCI-H522 = test: NCI 60 screen, NCI-H522; assay type: cell-based; conditions: Homo sapiens, Non-Small Cell Lung
Method: (§1) The compounds synthesized were tested at the National Cancer Institute (NCI) for anti-proliferative activity in the 60 human tumor cell line assay.

SK-OV-3 = test: NCI 60 screen, SK-OV-3; assay type: cell-based; conditions: Homo sapiens, Ovarian
Method: as §1

UACC-257 = test: NCI 60 screen, UACC-257; assay type: cell-based; conditions: Homo sapiens, Melanoma
Method: as §1

A498 = test: NCI 60 screen, A498; assay type: cell-based; conditions: Homo sapiens, Renal
Method: as §1

CCRF-CEM = test: NCI 60 screen, CCRF-CEM; assay type: cell-based; conditions: Homo sapiens, Leukemia
Method: as §1

NCI-460 = test: NCI 60 screen, NCI-460; assay type: cell-based; conditions: Homo sapiens, Non-Small Cell Lung
Method: as §1

HT29 = test: NCI 60 screen, HT29; assay type: cell-based; conditions: Homo sapiens, HT-29, Colon
Method: as §1

SF-268 = test: NCI 60 screen, SF-268; assay type: cell-based; conditions: Homo sapiens, CNS
Method: as §1

RXF393 = test: NCI 60 screen, RXF393; assay type: cell-based; conditions: Homo sapiens, RXF 393, Renal
Method: as §1

OVCAR-5 = test: NCI 60 screen, OVCAR-5; assay type: cell-based; conditions: Homo sapiens, Ovarian
Method: as §1

IGROV1 = test: NCI 60 screen, IGROV1; assay type: cell-based; conditions: Homo sapiens, IGROV-1, Ovarian
Method: as §1

HCT-116 = test: NCI 60 screen, HCT-116; assay type: cell-based; conditions: Homo sapiens, Colon
Method: as §1

HOP-92 = test: NCI 60 screen, HOP-92; assay type: cell-based; conditions: Homo sapiens, Non-Small Cell Lung
Method: as §1

SF-539 = test: NCI 60 screen, SF-539; assay type: cell-based; conditions: Homo sapiens, CNS
Method: as §1

DU-145 = test: NCI 60 screen, DU-145; assay type: cell-based; conditions: Homo sapiens, Prostatic
Method: as §1

MDA-MB-435 = test: NCI 60 screen, MDA-MB-435; assay type: cell-based; conditions: Homo sapiens, Melanoma
Method: as §1

NCI-H226 = test: NCI 60 screen, NCI-H226; assay type: cell-based; conditions: Homo sapiens, Non-Small Cell Lung
Method: as §1

UO-31 = test: NCI 60 screen, UO-31; assay type: cell-based; conditions: Homo sapiens, Renal
Method: as §1

SK-MEL-2 [1] = test: NCI 60 screen, SK-MEL-2 (second line); assay type: cell-based; conditions: Homo sapiens; Melanoma, SK-MEL-2 (second of two lines so named, r38)
Method: as §1

HS 578T = test: NCI 60 screen, HS 578T; assay type: cell-based; conditions: Homo sapiens, Breast
Method: as §1

KM12 = test: NCI 60 screen, KM12; assay type: cell-based; conditions: Homo sapiens, Colon
Method: as §1

T-47D = test: NCI 60 screen, T-47D; assay type: cell-based; conditions: Homo sapiens, T47D, Breast
Method: as §1

NCI/ADR-RES = test: NCI 60 screen, NCI/ADR-RES; assay type: cell-based; conditions: Homo sapiens, Ovarian
Method: as §1

TK-10 = test: NCI 60 screen, TK-10; assay type: cell-based; conditions: Homo sapiens, Renal
Method: as §1

HCT15 = test: NCI 60 screen, HCT15; assay type: cell-based; conditions: Homo sapiens, HCT-15, Colon
Method: as §1

NCI-322M = test: NCI 60 screen, NCI-322M; assay type: cell-based; conditions: Homo sapiens, Non-Small Cell Lung
Method: as §1

K-562 = test: NCI 60 screen, K-562; assay type: cell-based; conditions: Homo sapiens, K562, Leukemia
Method: as §1

EKVX = test: NCI 60 screen, EKVX; assay type: cell-based; conditions: Homo sapiens, Non-Small Cell Lung
Method: as §1

OVCAR-4 = test: NCI 60 screen, OVCAR-4; assay type: cell-based; conditions: Homo sapiens, Ovarian
Method: as §1

BT-549 = test: NCI 60 screen, BT-549; assay type: cell-based; conditions: Homo sapiens, Breast
Method: as §1

786-0 = test: NCI 60 screen, 786-0; assay type: cell-based; conditions: Homo sapiens, Renal
Method: as §1

HL-60(TB) = test: NCI 60 screen, HL-60(TB); assay type: cell-based; conditions: Homo sapiens, Leukemia
Method: as §1

A549/ATCC = test: NCI 60 screen, A549/ATCC; assay type: cell-based; conditions: Homo sapiens, Non-Small Cell Lung
Method: as §1

MALME-3M = test: NCI 60 screen, MALME-3M; assay type: cell-based; conditions: Homo sapiens, Melanoma
Method: as §1

UACC-62 = test: NCI 60 screen, UACC-62; assay type: cell-based; conditions: Homo sapiens, Melanoma
Method: as §1

HOP-62 = test: NCI 60 screen, HOP-62; assay type: cell-based; conditions: Homo sapiens, Non-Small Cell Lung
Method: as §1

SNB-75 = test: NCI 60 screen, SNB-75; assay type: cell-based; conditions: Homo sapiens, CNS
Method: as §1

CAKI-1 = test: NCI 60 screen, CAKI-1; assay type: cell-based; conditions: Homo sapiens, Renal
Method: as §1

MDA-MB-468 = test: NCI 60 screen, MDA-MB-468; assay type: cell-based; conditions: Homo sapiens, Breast
Method: as §1

MCF7 = test: NCI 60 screen, MCF7; assay type: cell-based; conditions: Homo sapiens, Breast
Method: as §1

SN12C = test: NCI 60 screen, SN12C; assay type: cell-based; conditions: Homo sapiens, Renal
Method: as §1

HCC-2998 = test: NCI 60 screen, HCC-2998; assay type: cell-based; conditions: Homo sapiens, Colon
Method: as §1

M14 = test: NCI 60 screen, M14; assay type: cell-based; conditions: Homo sapiens, Melanoma
Method: as §1

NCI-H23 = test: NCI 60 screen, NCI-H23; assay type: cell-based; conditions: Homo sapiens, Non-Small Cell Lung
Method: as §1

MDA-MB-231/ATCC = test: NCI 60 screen, MDA-MB-231/ATCC; assay type: cell-based; conditions: Homo sapiens, Breast
Method: as §1

SR = test: NCI 60 screen, SR; assay type: cell-based; conditions: Homo sapiens, Leukemia
Method: as §1

SNB-19 = test: NCI 60 screen, SNB-19; assay type: cell-based; conditions: Homo sapiens, CNS
Method: as §1

U251 = test: NCI 60 screen, U251; assay type: cell-based; conditions: Homo sapiens, U-251, CNS
Method: as §1

SK-MEL-2 [2] = test: NCI 60 screen, SK-MEL-2 (first line); assay type: cell-based; conditions: Homo sapiens; Melanoma, SK-MEL-2 (first of two lines so named, r37)
Method: as §1

ACHN = test: NCI 60 screen, ACHN; assay type: cell-based; conditions: Homo sapiens, Renal
Method: as §1

MOLT-4 = test: NCI 60 screen, MOLT-4; assay type: cell-based; conditions: Homo sapiens, Leukemia
Method: as §1

COLO 205 = test: NCI 60 screen, COLO 205; assay type: cell-based; conditions: Homo sapiens, Colon
Method: as §1

SK-MEL-5 = test: NCI 60 screen, SK-MEL-5; assay type: cell-based; conditions: Homo sapiens, Melanoma
Method: as §1

SF-295 = test: NCI 60 screen, SF-295; assay type: cell-based; conditions: Homo sapiens, CNS
Method: as §1

LOX IMVI = test: NCI 60 screen, LOX IMVI; assay type: cell-based; conditions: Homo sapiens, Melanoma
Method: as §1

SW-620 = test: NCI 60 screen, SW-620; assay type: cell-based; conditions: Homo sapiens, Colon
Method: as §1

PC-3 = test: NCI 60 screen, PC-3; assay type: cell-based; conditions: Homo sapiens, Prostatic
Method: as §1

OVCAR-8 = test: NCI 60 screen, OVCAR-8; assay type: cell-based; conditions: Homo sapiens, Ovarian
Method: as §1

OVCAR-3 = test: NCI 60 screen, OVCAR-3; assay type: cell-based; conditions: Homo sapiens, Ovarian
Method: as §1

RPMI-8226 = test: NCI 60 screen, RPMI-8226; assay type: cell-based; conditions: Homo sapiens, Leukemia
Method: as §1

Compound `CCn1ccnc1C(=O)/C=C/c1ccc(CC(=O)Nc2ccc(F)cc2)cc1` [Compound 31, (E)-2-(4-(3-(1-ethyl-1H-imidazol-2-yl)-3-oxoprop-1-en-1-yl)phenyl)-N-(4-fluorophenyl)acetamide] has a GI50 (NCI-H522) of 3.92 µM, a GI50 (SK-OV-3) of 6.97 µM and a GI50 (UACC-257) of 14 µM. For the same compound, the GI50 (A498) was 3.73 µM, the GI50 (CCRF-CEM) was 4.34 µM and the GI50 (NCI-460) was 2.64 µM. For the same compound, the GI50 (HT29) was 5.64 µM, the GI50 (SF-268) was 3.81 µM and the GI50 (RXF393) was 3.39 µM. It also gave a GI50 (OVCAR-5) of 4.97 µM, a GI50 (IGROV1) of 4.63 µM and a GI50 (HCT-116) of 1.84 µM. The GI50 (HOP-92) was 3.32 µM, the GI50 (SF-539) was 2.93 µM and the GI50 (DU-145) was 4.45 µM. The GI50 (MDA-MB-435) was 4.58 µM, the GI50 (NCI-H226) was 3.61 µM and the GI50 (UO-31) was 2.65 µM. For the same compound, the GI50 (SK-MEL-2 [1]) was 4.92 µM, the GI50 (HS 578T) was 5.36 µM and the GI50 (KM12) was 3.06 µM. For the same compound, the GI50 (T-47D) was 3.8 µM, the GI50 (NCI/ADR-RES) was 5.37 µM and the GI50 (TK-10) was 6.01 µM. The GI50 (HCT15) was 1.93 µM, the GI50 (NCI-322M) was 3.49 µM and the GI50 (K-562) was 2.06 µM. The GI50 (EKVX) was 3.59 µM, the GI50 (OVCAR-4) was 3.31 µM and the GI50 (BT-549) was 2.94 µM. The GI50 (786-0) was 4.36 µM, the GI50 (HL-60(TB)) was 3.18 µM and the GI50 (A549/ATCC) was 4.16 µM. It also gave a GI50 (MALME-3M) of 16.7 µM, a GI50 (UACC-62) of 2.83 µM and a GI50 (HOP-62) of 3.92 µM. It also gave a GI50 (SNB-75) of 2.81 µM, a GI50 (CAKI-1) of 5.08 µM and a GI50 (MDA-MB-468) of 1.99 µM. For the same compound, the GI50 (MCF7) was 2.52 µM, the GI50 (SN12C) was 3.71 µM and the GI50 (HCC-2998) was 5.1 µM. The GI50 (M14) was 3.02 µM, the GI50 (NCI-H23) was 4.25 µM and the GI50 (MDA-MB-231/ATCC) was 3.36 µM. The GI50 (SR) was 0.53 µM, the GI50 (SNB-19) was 3.58 µM and the GI50 (U251) was 1.88 µM. The GI50 (SK-MEL-2 [2]) was 6.26 µM, the GI50 (ACHN) was 3.95 µM and the GI50 (MOLT-4) was 5.28 µM. For the same compound, the GI50 (COLO 205) was 4.29 µM, the GI50 (SK-MEL-5) was 5.74 µM and the GI50 (SF-295) was 4.41 µM. For the same compound, the GI50 (LOX IMVI) was 0.56 µM, the melting point was 219 to 220 °C and the GI50 (SW-620) was 4.29 µM. For the same compound, the GI50 (PC-3) was 7.06 µM, the GI50 (OVCAR-8) was 4.86 µM and the GI50 (OVCAR-3) was 3.92 µM. It also gave a GI50 (RPMI-8226) of 2.28 µM.
